According to patent US20240116845A1, “INDENE COMPOUNDS, PHARMACEUTICAL COMPOSITIONS THEREOF, AND THEIR THERAPEUTIC APPLICATIONS” (NucMito Pharmaceuticals Co., Ltd., priority 2021, published 2024):

Key:
Format in all cases: cell-based
[1] = tested on: MDA-MB-231 (breast cancer); test: Antiproliferative activity, CCK-8 cell viability; settings: Homo sapiens, 72 h, read-out: Inhibition of Cancerous Cells, MDA-MB-231; for inhibition at 3.3 µM: compound concentration of 3.3 μM; for inhibition at 10 µM: compound concentration of 10 μM; for inhibition at 30 µM: compound concentration of 30 μM
Outline: (§1)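 Cells in DMEM with 10% FBS were treated with compound at 3.3, 10 or 30 μM for 72 h at 37°C. Viability was read by CCK-8 absorbance at 450 nm and expressed relative to DMSO-treated cells. Growth inhibition was binned as ≥50%, 30–50% or <30%.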

[2] = tested on: A431 (epidermoid carcinoma); test: Antiproliferative activity, CCK-8 cell viability; settings: Homo sapiens, A-431, 72 h, read-out: Inhibition of Cancerous Cells, A431; for inhibition at 3.3 µM: compound concentration of 3.3 μM; for inhibition at 10 µM: compound concentration of 10 μM; for inhibition at 30 µM: compound concentration of 30 μM
Outline: as §1

HepG2 (liver cancer) = test: Antiproliferative activity, CCK-8 cell viability; settings: Homo sapiens, 72 h, read-out: Inhibition of Cancerous Cells, HepG2; for inhibition at 3.3 µM: compound concentration of 3.3 μM; for inhibition at 10 µM: compound concentration of 10 μM; for inhibition at 30 µM: compound concentration of 30 μM
Outline: as §1

[3] = tested on: A549 (lung adenocarcinoma); test: Antiproliferative activity, CCK-8 cell viability; settings: Homo sapiens, 72 h, read-out: Inhibition of Cancerous Cells, A549; for inhibition at 3.3 µM: compound concentration of 3.3 μM; for inhibition at 10 µM: compound concentration of 10 μM; for inhibition at 30 µM: compound concentration of 30 μM
SW480 (colon cancer) = test: Antiproliferative activity, CCK-8 cell viability; settings: Homo sapiens, 72 h, read-out: Inhibition of Cancerous Cells, SW480; for inhibition at 3.3 µM: compound concentration of 3.3 μM; for inhibition at 10 µM: compound concentration of 10 μM; for inhibition at 30 µM: compound concentration of 30 μM
Outline: as §1

[4] = tested on: B16F10 (malignant melanoma); test: Antiproliferative activity, CCK-8 cell viability; settings: Mus musculus, B16-F10, 72 h, read-out: Inhibition of Cancerous Cells, B16F10; for inhibition at 3.3 µM: compound concentration of 3.3 μM; for inhibition at 10 µM: compound concentration of 10 μM; for inhibition at 30 µM: compound concentration of 30 μM
Outline: as §1

HeLa (cervical cancer) = test: Antiproliferative activity, CCK-8 cell viability; settings: Homo sapiens, 72 h, read-out: Inhibition of Cancerous Cells, HELA; for inhibition at 3.3 µM: compound concentration of 3.3 μM; for inhibition at 10 µM: compound concentration of 10 μM; for inhibition at 30 µM: compound concentration of 30 μM
[5] = tested on: alpha-smooth muscle actin (α-SMA); test: Inhibition of TGF-β induced expression of alpha-smooth muscle actin in CFSC cells (western blot); settings: compound at 10 μM, TGF-β (10 ng/mL), 24 hours
Outline: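 Rat CCl4-treated hepatic stellate (CFSC) cells in serum-free DMEM were given compound at 10 μM plus TGF-β 10 ng/mL for 24 h at 37 °C. α-SMA measured by western blot with β-actin, bands quantified densitometrically. Percent inhibition is the decrease in band intensity versus TGF-β alone.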

SMILES | inhibition at 3.3 µM [1] [%] | inhibition at 10 µM [1] [%] | inhibition at 30 µM [1] [%] | inhibition at 3.3 µM [2] [%] | inhibition at 10 µM [2] [%] | inhibition at 30 µM [2] [%] | inhibition at 3.3 µM (HepG2 (liver cancer)) [%] | inhibition at 10 µM (HepG2 (liver cancer)) [%] | inhibition at 30 µM (HepG2 (liver cancer)) [%] | inhibition at 3.3 µM [3] [%] | inhibition at 10 µM [3] [%] | inhibition at 30 µM [3] [%] | inhibition at 3.3 µM (SW480 (colon cancer)) [%] | inhibition at 10 µM (SW480 (colon cancer)) [%] | inhibition at 30 µM (SW480 (colon cancer)) [%] | inhibition at 3.3 µM [4] [%] | inhibition at 10 µM [4] [%] | inhibition at 30 µM [4] [%] | inhibition at 3.3 µM (HeLa (cervical cancer)) [%] | inhibition at 10 µM (HeLa (cervical cancer)) [%] | also measured
COc1ccc2c(c1)/C(=C\c1ccc(CN(C)c3ccccc3)cc1)C(C)=C2CC(=O)O [Compound A13, 2-[(1Z)-6-Methoxy-2-methyl-1-[(4-{[methyl(phenyl)amino]methyl}phenyl)-methylidene]-1H-inden-3-yl]acetic acid] | < 30 | 30 to 50 | ≥ 50 | ≥ 50 | ≥ 50 | ≥ 50 | ≥ 50 | ≥ 50 | ≥ 50 | 30 to 50 | 30 to 50 | ≥ 50 | ≥ 50 | 30 to 50 | ≥ 50 | < 30 | 30 to 50 | ≥ 50 | < 30 | 30 to 50 | inhibition at 30 µM (HeLa (cervical cancer)): ≥ 50%; inhibition at 10 µM [5]: ≥ 80%
CC1=C(CC(=O)O)c2cc(F)ccc2/C1=C\c1ccc(COc2ccc(F)cc2F)cc1 [Compound A15, 2-[(1Z)-1-({4-[(2,4-Difluorophenoxy)methyl]phenyl}methylidene)-5-fluoro-2-methyl-1H-inden-3-yl]acetic acid] | ≥ 50 | ≥ 50 | ≥ 50 | < 30 | < 30 | ≥ 50 | ≥ 50 | ≥ 50 | ≥ 50 | 30 to 50 | ≥ 50 | ≥ 50 | ≥ 50 | ≥ 50 | ≥ 50 | ≥ 50 | ≥ 50 | ≥ 50 | 30 to 50 | ≥ 50 | inhibition at 30 µM (HeLa (cervical cancer)): ≥ 50%; inhibition at 10 µM [5]: ≥ 80%
CC1=C(CC(=O)O)c2cc(F)ccc2/C1=C\c1cccc(CN(C)c2ccccc2)c1 [Compound A16, 2-[(1Z)-5-Fluoro-2-methyl-1-[(3-{[methyl(phenyl)amino]methyl}phenyl)-methylidene]-1H-inden-3-yl]acetic acid] | 30 to 50 | ≥ 50 | ≥ 50 | < 30 | ≥ 50 | ≥ 50 | < 30 | 30 to 50 | ≥ 50 | 30 to 50 | ≥ 50 | ≥ 50 | ≥ 50 | ≥ 50 | ≥ 50 | < 30 | < 30 | ≥ 50 | 30 to 50 | ≥ 50 | inhibition at 30 µM (HeLa (cervical cancer)): ≥ 50%; inhibition at 10 µM [5]: ≥ 80%
CC1=C(CC(=O)O)c2cc(F)ccc2/C1=C\c1cccc(CCc2ccccc2)c1 [Compound A17, 2-[(1Z)-5-Fluoro-2-methyl-1-{[3-(2-phenylethyl)phenyl]methylidene}-1H-inden-3-yl]acetic acid] | ≥ 50 | ≥ 50 | ≥ 50 | < 30 | ≥ 50 | ≥ 50 | ≥ 50 | ≥ 50 | ≥ 50 | ≥ 50 | ≥ 50 | ≥ 50 | ≥ 50 | ≥ 50 | ≥ 50 | 30 to 50 | ≥ 50 | ≥ 50 | 30 to 50 | ≥ 50 | inhibition at 30 µM (HeLa (cervical cancer)): ≥ 50%; inhibition at 10 µM [5]: < 30%
CC1=C(CC(=O)O)c2cc(F)ccc2/C1=C\c1cccc(COc2ccc(F)cc2F)c1 [Compound A19, 2-[(1Z)-1-({3-[(2,4-Difluorophenoxy)methyl]phenyl}methylidene)-5-fluoro-2-methyl-1H-inden-3-yl]acetic acid] | ≥ 50 | ≥ 50 | ≥ 50 | ≥ 50 | ≥ 50 | ≥ 50 | 30 to 50 | ≥ 50 | ≥ 50 | < 30 | 30 to 50 | ≥ 50 | ≥ 50 | ≥ 50 | ≥ 50 | ≥ 50 | ≥ 50 | ≥ 50 | 30 to 50 | ≥ 50 | inhibition at 30 µM (HeLa (cervical cancer)): ≥ 50%; inhibition at 10 µM [5]: ≥ 80%
CC1=C(CC(=O)O)c2cc(F)ccc2/C1=C\c1cccc(COc2ccc(F)c(F)c2)c1 [Compound A20, 2-[(1Z)-1-({3-[(3,4-Difluorophenoxy)methyl]phenyl}methylidene)-5-fluoro-2-methyl-1H-inden-3-yl]acetic acid] | ≥ 50 | ≥ 50 | ≥ 50 | ≥ 50 | ≥ 50 | ≥ 50 | ≥ 50 | ≥ 50 | ≥ 50 | < 30 | 30 to 50 | ≥ 50 | < 30 | 30 to 50 | ≥ 50 | 30 to 50 | 30 to 50 | ≥ 50 | 30 to 50 | 30 to 50 | inhibition at 30 µM (HeLa (cervical cancer)): ≥ 50%; inhibition at 10 µM [5]: ≥ 80%
CC1=C(CC(=O)O)c2cc(F)ccc2/C1=C\c1cccc(COc2ccc(C(F)(F)F)cc2)c1 [Compound A21, 2-[(1Z)-5-Fluoro-2-methyl-1-[(3-{[4-(trifluoromethyl)phenoxy]methyl}phenyl)-methylidene]-1H-inden-3-yl]acetic acid] | ≥ 50 | ≥ 50 | ≥ 50 | 30 to 50 | ≥ 50 | ≥ 50 | 30 to 50 | 30 to 50 | ≥ 50 | 30 to 50 | 30 to 50 | ≥ 50 | ≥ 50 | ≥ 50 | ≥ 50 | ≥ 50 | ≥ 50 | ≥ 50 | 30 to 50 | 30 to 50 | inhibition at 30 µM (HeLa (cervical cancer)): ≥ 50%; inhibition at 10 µM [5]: < 30%
CC1=C(CC(=O)O)c2cc(F)ccc2/C1=C\c1cccc(COc2ccc(C(C)(C)C)cc2)c1 [Compound A22, 2-[(1Z)-1-({3-[(4-Tert-butylphenoxy)methyl]phenyl}methylidene)-5-fluoro-2-methyl-1H-inden-3-yl]acetic acid] | ≥ 50 | ≥ 50 | ≥ 50 | ≥ 50 | ≥ 50 | ≥ 50 | 30 to 50 | ≥ 50 | ≥ 50 | < 30 | 30 to 50 | ≥ 50 | 30 to 50 | ≥ 50 | ≥ 50 | ≥ 50 | ≥ 50 | ≥ 50 | < 30 | < 30 | inhibition at 30 µM (HeLa (cervical cancer)): ≥ 50%; inhibition at 10 µM [5]: ≥ 80%
